Measured values taken from patent publication US5855916A, “Highly soluble multicomponent inclusion complexes containing a base type drug, an acid and a cyclodextrin” (priority 1993, dated 1999).
≈ marks a conversion by molar mass, not a printed value. Like-named read-outs stand apart in the source and are kept apart here.

Experiments:
[1] = Effect of some acids on the β-CD solubility; assay type: physicochemical
Description: In a test tube 1000 mg of β-CD in 5 ml of a solution having different concentrations of an acid selected from tartaric, citric, lactic acid, were let to equilibrate for two days at 28*/-2° C. under stirring. The solution was filtered and β-CD concentration was determined by HPLC.

[2] = for Water solubility, drug concentration F: FB/AT/βCD / Solubility ratio to FB: FB/AT/βCD: drug/tartaric acid/β-CD multicomponent complex; for Water solubility, drug concentration F: FB/βCD: drug/β-cyclodextrin complex; for Solubility ratio to FB: FB: drug alone; for Solubility ratio to FB: FB/AT: drug with tartaric acid; for Water solubility, drug concentration F: FB/DIMEB: drug/DIMEB complex; for Water solubility, drug concentration F: FB/HPβ-CD: drug/HPβ-CD complex; for Water solubility, drug concentration F: FB/RAMEB: drug/RAMEB complex; for Water solubility, drug concentration F: FB/α-CD: drug/α-CD complex; for Water solubility, drug concentration F: FB/γ-CD: drug/γ-CD complex
physchem = settings: water
[3] = acidic conditions; Kikuchi et al.; cited from earlier work
[4] = simultaneous administration of citric acid; Tokumura et al.; cited from earlier work
[5] = 1 mmol terfenadine, 15 ml water, 6 mmol acetic or 4 mmol formic acid
[6] = Table 1, drug tartrate in β-CD solution, room temperature
[7] = drug concentration F: FB, Table 1, basic-type drug alone, room temperature
[8] = drug concentration F: FB/AT, Table 1, drug with tartaric acid, room temperature
[9] = drug concentration F: FB, Table 3, basic-type drug alone

SMILES: OC[C@H]1O[C@@H]2O[C@H]3[C@H](O)[C@@H](O)[C@@H](O[C@H]4[C@H](O)[C@@H](O)[C@@H](O[C@H]5[C@H](O)[C@@H](O)[C@@H](O[C@H]6[C@H](O)[C@@H](O)[C@@H](O[C@H]7[C@H](O)[C@@H](O)[C@@H](O[C@H]8[C@H](O)[C@@H](O)[C@@H](O[C@H]1[C@H](O)[C@H]2O)O[C@@H]8CO)O[C@@H]7CO)O[C@@H]6CO)O[C@@H]5CO)O[C@@H]4CO)O[C@@H]3CO [β-CD]
- β-CD concentration ([1]; citric acid 0 mg/ml, 2880 min): 18.3 mg/mL
- β-CD concentration ([1]; citric acid 9.6 mg/ml, 2880 min): 34.1 mg/mL
- β-CD concentration ([1]; citric acid 19.2 mg/ml, 2880 min): 47.9 mg/mL
- β-CD concentration ([1]; citric acid 48.0 mg/ml): 86.1 mg/mL
- β-CD concentration ([1]; citric acid 96.0 mg/ml, 2880 min): 140.1 mg/mL
- β-CD concentration ([1]; citric acid 144.0 mg/ml, 2880 min): 195.7 mg/mL
- Effect of tartaric and citric acid on water solubility of β-CD ([1]; depending on acid concentration): remarkably enhance the water solubility
- β-CD concentration ([1]; lactic acid 0 mg/ml, 2880 min): 18.3 mg/mL
- β-CD concentration ([1]; lactic acid 9.0 mg/ml, 2880 min): 18.8 mg/mL
- β-CD concentration ([1]; lactic acid 22.5 mg/ml, 2880 min): 24.2 mg/mL
- β-CD concentration ([1]; lactic acid 67.5 mg/ml, 2880 min): 35.8 mg/mL
- Effect of lactic acid on water solubility of β-CD ([1]; lactic acid, compared with tartaric and citric acid): lower effect
- Increase of the β-CD solubility in the binary system acid-β-CD ([1]; tartaric 11 and citric 17 mg/ml respectively): about 2 times
- β-CD concentration ([1]; tartaric acid 0 mg/ml, 2880 min): 18.3 mg/mL
- β-CD concentration ([1]; tartaric acid 15.0 mg/ml, 2880 min): 31.4 mg/mL
- β-CD concentration ([1]; tartaric acid 112.5 mg/ml, 2880 min): 83.7 mg/mL

SMILES: CC(=O)N1CCN(c2ccc(OCC3COC(Cn4ccnc4)(c4ccc(Cl)cc4Cl)O3)cc2)CC1 (stereo not drawn) [Ketoconazole]
- Water solubility, drug concentration F: FT/βCD [2, 6]: 21000 µg/mL
- Water solubility, drug concentration F: FB/AT/βCD ([2]; Table 1, room temperature): 110000 µg/mL
- Water solubility, drug concentration F: FB/βCD ([2]; Table 1, room temperature): 1240 µg/mL
- solubility (physchem; [7]): 50 µg/mL (≈ 94.1 µM)
- solubility (physchem; [8]): 21000 µg/mL (≈ 39500 µM)

SMILES: CCCCCCNC(=O)n1cc(F)c(=O)[nH]c1=O [HCFU, 1-hexylcarbamoyl-5-fluorouracil]
- Chemical stability [3]: chemically stable under acidic conditions

SMILES: COc1ccc(CCN2CCC(Nc3nc4ccccc4n3Cc3ccc(F)cc3)CC2)cc1 [Astemizole]
- Solubility ratio to FB: FB ([2]; Table 1): 1 x
- Solubility ratio to FB: FT/βCD ([2]; Table 1, drug tartrate in β-CD solution): 1975 x
- Water solubility, drug concentration F: FT/βCD [2, 6]: 7900 µg/mL
- Solubility ratio to FB: FB/AT ([2]; Table 1): 817.5 x
- Solubility ratio to FB: FB/AT/βCD ([2]; Table 1): 22500 x
- Water solubility, drug concentration F: FB/AT/βCD ([2]; Table 1, room temperature): 90000 µg/mL
- Solubility ratio to FB: FB/βCD ([2]; Table 1, drug/β-CD complex): 16 x
- Water solubility, drug concentration F: FB/βCD ([2]; Table 1, room temperature): 65 µg/mL
- Solubility ratio to FB: FB/DIMEB ([2]; Table 3): 303 x
- Solubility ratio to FB: FB/HPβ-CD ([2]; Table 3): 86 x
- Solubility ratio to FB: FB/RAMEB ([2]; Table 3): 275 x
- Solubility ratio to FB: FB/α-CD ([2]; Table 3): 6 x
- Solubility ratio to FB: FB/γ-CD ([2]; Table 3): 6.6 x
- Water solubility, drug concentration F: FB/DIMEB ([2]; Table 3): 1245 µg/mL
- Water solubility, drug concentration F: FB/HPβ-CD ([2]; Table 3): 353 µg/mL
- Water solubility, drug concentration F: FB/RAMEB ([2]; Table 3): 1100 µg/mL
- Water solubility, drug concentration F: FB/α-CD ([2]; Table 3): 24 µg/mL
- Water solubility, drug concentration F: FB/γ-CD ([2]; Table 3): 27 µg/mL
- solubility (physchem; [7]): 4 µg/mL (≈ 8.72 µM)
- solubility (physchem; [9]): 4 µg/mL (≈ 8.72 µM)
- solubility (physchem; [8]): 3270 µg/mL (≈ 7130 µM)

SMILES: C(=C\c1ccccc1)/CN1CCN(C(c2ccccc2)c2ccccc2)CC1 [Cinnarizine]
- Difference in bioavailability between cinnarizine + citric acid and its β-cyclodextrin complex + citric acid [4]: no significant difference

SMILES: CC(C)(C)c1ccc(C(O)CCCN2CCC(C(O)(c3ccccc3)c3ccccc3)CC2)cc1 (stereo not drawn) [Terfenadine]
- Dissolution attempt with acid without cyclodextrin [5]: not successful

SMILES: CCN(CC)CCOc1ccc(C(=C(Cl)c2ccccc2)c2ccccc2)cc1 [Clomifene]
- Solubility ratio to FB: FB ([2]; Table 2): 1 x
- Solubility ratio to FB: FC/βCD ([2]; Table 2, drug citrate in β-CD solution): 500 x
- Water solubility, drug concentration F: FC/βCD ([2]; Table 2, drug citrate in β-CD solution, room temperature): 20000 µg/mL
- Solubility ratio to FB: FB/AC ([2]; Table 2, drug with citric acid): 155 x
- Solubility ratio to FB: FB/AC/βCD ([2]; Table 2, drug/citric acid/β-CD multicomponent complex): 1925 x
- Water solubility, drug concentration F: FB/AC/βCD ([2]; Table 2, drug/citric acid/β-CD multicomponent complex, room temperature): 77000 µg/mL
- Solubility ratio to FB: FB/CD ([2]; Table 2, drug/β-CD complex): 7 x
- Water solubility, drug concentration F: FB/CD ([2]; Table 2, drug/β-CD complex, room temperature): 280 µg/mL
- solubility (physchem; drug concentration F: FB, Table 2, basic-type drug alone, room temperature): 40 µg/mL (≈ 98.5 µM)
- solubility (physchem; drug concentration F: FB/AC, Table 2, drug with citric acid, room temperature): 6200 µg/mL (≈ 15300 µM)

SMILES: O=c1[nH]c2ccccc2n1CCCN1CCC(n2c(=O)[nH]c3cc(Cl)ccc32)CC1 [Domperidone]
- Solubility ratio to FB: FB ([2]; Table 1): 1 x
- Solubility ratio to FB: FB/AT ([2]; Table 1): 2000 x
- Solubility ratio to FB: FB/AT/βCD ([2]; Table 1): 5000 x
- Water solubility, drug concentration F: FB/AT/βCD ([2]; Table 1, room temperature): 25000 µg/mL
- Solubility ratio to FB: FB/βCD ([2]; Table 1, drug/β-CD complex): 4.4 x
- Water solubility, drug concentration F: FB/βCD ([2]; Table 1, room temperature): 22 µg/mL
- Solubility ratio to FB: FB/AT/DIMEB ([2]; Table 3): 600 x
- Solubility ratio to FB: FB/AT/HPβ-CD ([2]; Table 3): 10000 x
- Solubility ratio to FB: FB/AT/RAMEB ([2]; Table 3): 6000 x
- Solubility ratio to FB: FB/AT/α-CD ([2]; Table 3): 5000 x
- Solubility ratio to FB: FB/AT/γ-CD ([2]; Table 3): 6000 x
- Solubility ratio to FB: FB/DIMEB ([2]; Table 3): 112 x
- Solubility ratio to FB: FB/HPβ-CD ([2]; Table 3): 32 x
- Solubility ratio to FB: FB/RAMEB ([2]; Table 3): 56 x
- Solubility ratio to FB: FB/α-CD ([2]; Table 3): 6.6 x
- Solubility ratio to FB: FB/γ-CD ([2]; Table 3): 8 x
- Water solubility, drug concentration F: FB/DIMEB ([2]; Table 3): 560 µg/mL
- Water solubility, drug concentration F: FB/HPβ-CD ([2]; Table 3): 160 µg/mL
- Water solubility, drug concentration F: FB/RAMEB ([2]; Table 3): 280 µg/mL
- Water solubility, drug concentration F: FB/AT/DIMEB ([2]; Table 3, drug/tartaric acid/DIMEB multicomponent complex): 30000 µg/mL
- Water solubility, drug concentration F: FB/AT/HPβ-CD ([2]; Table 3, drug/tartaric acid/HPβ-CD multicomponent complex): 50000 µg/mL
- Water solubility, drug concentration F: FB/AT/RAMEB ([2]; Table 3, drug/tartaric acid/RAMEB multicomponent complex): 30000 µg/mL
- Water solubility, drug concentration F: FB/AT/α-CD ([2]; Table 3, drug/tartaric acid/α-CD multicomponent complex): 25000 µg/mL
- Water solubility, drug concentration F: FB/AT/γ-CD ([2]; Table 3, drug/tartaric acid/γ-CD multicomponent complex): 30000 µg/mL
- Water solubility, drug concentration F: FB/α-CD ([2]; Table 3): 33 µg/mL
- Water solubility, drug concentration F: FB/γ-CD ([2]; Table 3): 40 µg/mL
- solubility (physchem; [7]): 5 µg/mL (≈ 11.7 µM)
- solubility (physchem; [9]): 5 µg/mL (≈ 11.7 µM)
- solubility (physchem; [8]): 10000 µg/mL (≈ 23500 µM)
